Test results as given in patent publication US6897244B2, “Dihydronootkatone and tetrahydronootkatone as repellents to arthropods” (Board of Supervisors of Louisiana State University and …, priority 2002, dated 2005).

Assays:
[1] = test system: Formosan subterranean termites; test: Petri dish treated/untreated sand bioassay for repelling activity against termites; type: in vivo, Coptotermes formosanus; set-up: key to percent of termites on untreated sand vs expected value of 50% (Chi-Square, p≦0.05): “−” indicates the test was not significantly different from the expected value; “+” indicates the test was significantly different from the expected value
Procedure: A carton nest (colony A) of Formosan subterranean termites was collected in Algiers, Louisiana in November 1997, and held in 250-liter cans. The cans were filled with pine as a food source, and kept at a temperature range of 24-26° C. Moistened corrugated cardboard rolls were used to retrieve termites from the cans. Once the termites migrated to the cardboard rolls, they were gently knocked from the cardboard rolls into clean rectangular plastic trays (40 cm×50 cm). Retrieved termites were isolated from debris by allowing them to cling to sheets of moistened paper towels. The average weight of each termite was 1.21 mg.
To test for effectiveness of nootkatone, 1,10-dihydronootkatone and tetrahydronootkatone in repelling termites, a bioassay was conducted using Petri dishes (5 cm diameter and 1 cm height). To ensure adequate moisture for the termites, 1 ml of a hot agar solution (1.5% in H2O) was spread on the bottom of the Petri dish. After the agar cooled, sand that was treated as described below was spread on the bottom of the Petri dish. For the treated sand, purified 1,10-dihydronootkatone or tetrahydronootkatone were dissolved in 2 ml ethanol, and then diluted to achieve final concentrations of 1, 2, 5, 12.5, 25, 50, and 100 μg/g sand. The solution was mixed with 1 g sand that had been autoclaved and cooled. The control sand was autoclaved sand with only 200 μl ethanol added. One half of the surfaces in the Petri dishes were covered with 1 g treated sand, and the other half with 1 g untreated sand.
The prepared Petri dishes were then used to evaluate the repelling activity against Formosan subterranean termites. Ten worker termites were added to each Petri dish, and the dishes were covered to eliminate light. Five replicate dishes were tested for each concentration and for the control. Termite position was recorded every 15 min during the first hour of testing by counting the number of termites observed on untreated sand. After the first hour, termite position was recorded each hour for 3 hr.
Differences between the percent of termites on untreated sand and an expected value were statistically analyzed by a Chi-Square analysis, using an expected value of 50% and a significance level of p≦0.05.

ants = details: previously discovered, U.S. Ser. No. 09/932,555; cited from earlier work
cockroaches = details: previously discovered, U.S. Ser. No. 09/932,555; cited from earlier work
ticks = details: previously discovered, U.S. Ser. No. 09/932,555; cited from earlier work
fleas = details: previously demonstrated, U.S. Ser. No. 09/932,555; cited from earlier work

C=C(C)C1CCC2=CC(=O)CC(C)C2(C)C1 (centres unmarked) [Nootkatone, 4,4a,5,6,7,8-hexahydro-6-isopropenyl-4,4a-dimethyl-2(3H)-naphthalenone]
percent of termites on untreated sand vs expected value of 50% (Chi-Square, p≦0.05) ([1]; 2 μg/dish, 0.25 hour): −
percent of termites on untreated sand vs expected value of 50% (Chi-Square, p≦0.05) ([1]; 2 μg/dish, 0.5 hour): −
percent of termites on untreated sand vs expected value of 50% (Chi-Square, p≦0.05) ([1]; 2 μg/dish, 0.75 hour): −
percent of termites on untreated sand vs expected value of 50% (Chi-Square, p≦0.05) ([1]; 2 μg/dish, 1 hour): −
percent of termites on untreated sand vs expected value of 50% (Chi-Square, p≦0.05) ([1]; 2 μg/dish, 2 hour): −
percent of termites on untreated sand vs expected value of 50% (Chi-Square, p≦0.05) ([1]; 2 μg/dish, 3 hour): −
percent of termites on untreated sand vs expected value of 50% (Chi-Square, p≦0.05) ([1]; 5 μg/dish, 0.25 hour): −
percent of termites on untreated sand vs expected value of 50% (Chi-Square, p≦0.05) ([1]; 5 μg/dish, 0.5 hour): −
percent of termites on untreated sand vs expected value of 50% (Chi-Square, p≦0.05) ([1]; 5 μg/dish, 0.75 hour): −
percent of termites on untreated sand vs expected value of 50% (Chi-Square, p≦0.05) ([1]; 5 μg/dish, 1 hour): −
percent of termites on untreated sand vs expected value of 50% (Chi-Square, p≦0.05) ([1]; 5 μg/dish, 2 hour): −
percent of termites on untreated sand vs expected value of 50% (Chi-Square, p≦0.05) ([1]; 5 μg/dish, 3 hour): −
percent of termites on untreated sand vs expected value of 50% (Chi-Square, p≦0.05) ([1]; 12.5 μg/dish, 0.25 hour): −
percent of termites on untreated sand vs expected value of 50% (Chi-Square, p≦0.05) ([1]; 12.5 μg/dish, 0.5 hour): −
percent of termites on untreated sand vs expected value of 50% (Chi-Square, p≦0.05) ([1]; 12.5 μg/dish, 0.75 hour): −
percent of termites on untreated sand vs expected value of 50% (Chi-Square, p≦0.05) ([1]; 12.5 μg/dish, 1 hour): −
percent of termites on untreated sand vs expected value of 50% (Chi-Square, p≦0.05) ([1]; 12.5 μg/dish, 2 hour): −
percent of termites on untreated sand vs expected value of 50% (Chi-Square, p≦0.05) ([1]; 12.5 μg/dish, 3 hour): −
percent of termites on untreated sand vs expected value of 50% (Chi-Square, p≦0.05) ([1]; 25 μg/dish, 0.25 hour): −
percent of termites on untreated sand vs expected value of 50% (Chi-Square, p≦0.05) ([1]; 25 μg/dish, 0.5 hour): −
percent of termites on untreated sand vs expected value of 50% (Chi-Square, p≦0.05) ([1]; 25 μg/dish, 0.75 hour): −
percent of termites on untreated sand vs expected value of 50% (Chi-Square, p≦0.05) ([1]; 25 μg/dish, 1 hour): −
percent of termites on untreated sand vs expected value of 50% (Chi-Square, p≦0.05) ([1]; 25 μg/dish, 2 hour): −
percent of termites on untreated sand vs expected value of 50% (Chi-Square, p≦0.05) ([1]; 25 μg/dish, 3 hour): −
percent of termites on untreated sand vs expected value of 50% (Chi-Square, p≦0.05) ([1]; 50 μg/dish, 0.25 hour): +
percent of termites on untreated sand vs expected value of 50% (Chi-Square, p≦0.05) ([1]; 50 μg/dish, 0.5 hour): −
percent of termites on untreated sand vs expected value of 50% (Chi-Square, p≦0.05) ([1]; 50 μg/dish, 0.75 hour): −
percent of termites on untreated sand vs expected value of 50% (Chi-Square, p≦0.05) ([1]; 50 μg/dish, 1 hour): +
percent of termites on untreated sand vs expected value of 50% (Chi-Square, p≦0.05) ([1]; 50 μg/dish, 2 hour): −
percent of termites on untreated sand vs expected value of 50% (Chi-Square, p≦0.05) ([1]; 50 μg/dish, 3 hour): −
percent of termites on untreated sand vs expected value of 50% (Chi-Square, p≦0.05) ([1]; 100 μg/dish, 0.25 hour): +
percent of termites on untreated sand vs expected value of 50% (Chi-Square, p≦0.05) ([1]; 100 μg/dish, 0.5 hour): +
percent of termites on untreated sand vs expected value of 50% (Chi-Square, p≦0.05) ([1]; 100 μg/dish, 0.75 hour): +
percent of termites on untreated sand vs expected value of 50% (Chi-Square, p≦0.05) ([1]; 100 μg/dish, 1 hour): +
percent of termites on untreated sand vs expected value of 50% (Chi-Square, p≦0.05) ([1]; 100 μg/dish, 2 hour): +
percent of termites on untreated sand vs expected value of 50% (Chi-Square, p≦0.05) ([1]; 100 μg/dish, 3 hour): +
concentration required for a significant effect of the treated sand on termite distribution ([1]; time periods greater than 1 hr): 100 μg/dish
activity against ants (ants): significant repellent and toxicant
activity against cockroaches (cockroaches): repellent
activity against ticks (ticks): significant repellent and toxicant
effect on fleas (fleas): not affected
